Assay results from patent publication US20070134744A1, “Epothilone resistant cell lines” (priority 2000, published 2007).
“Also recorded” adds a separate entry of the source.

Key:
[1] = system: EA20 cells; experiment: Reversal of resistance by P-gp inhibitor (MTS assay); format: cell-based; settings: EA20 cells incubated with epothilone A in the presence of PSC-833
Protocol: (§1) Growth inhibition may be analyzed using conventional methods, for example a MTS assay (PROMEGA, Wis.) may be used. In this assay approximately 4000 cells per well are seeded in 96 well plates in MEM supplemented with 10% fetal calf serum and incubated at 37° C. in 5.0% CO2. After 24 hours, dilutions of drug (concentration range used is between 1 nM and 1000 nM) are added and cells are allowed to incubate with drug for an additional 72 hours. The MTS reagent mixed with PMS (MTS:PMS 20:1 according to manufacturer's instructions) is then added and absorbance quantitated using a Thermomax microplate reader system according to conventional methods (Molecular Devices, Sunnyvale, Calif.). […] Six assays per drug per plate are performed.
(§2) As such, epothilone resistant cells would have some degree of cross-resistance to other P-gp substrates that could be reversed by P-gp inhibitors. To investigate this possibility, the cytotoxicity of the P-gp substrates, vincristine, doxorubicine and vinblastine is determined against epothilone A resistant cells using the MTS assay. […]

[2] = system: MDA/T0.3 cells; experiment: as above; format: cell-based; settings: MDA/T0.3 cells incubated with TAXOL in the presence of PSC-833
Protocol: as §1, §2

[3] = system: KB-8511 cells; settings: cited from earlier work
[4] = system: EA10 cells; experiment: MTS growth inhibition assay; format: cell-based; settings: MTS, 72 hours drug, Table 1
Protocol: as §1
(§3) Thus, at least two potential mechanisms of epothilone A resistance may exist—a lower resistance mechanism that is cross-resistant to TAXOL® and a higher, epothilone A specific resistance mechanism.

[5] = system: MDA-MB-435 cells; experiment: MTS growth inhibition assay; format: cell-based
Protocol: as §1, §3

[6] = system: EA20 cells; experiment: MTS growth inhibition assay; format: cell-based; settings: MTS, 72 hours drug, Table 1
Protocol: as §1, §3

[7] = system: EA60 cells; experiment: MTS growth inhibition assay; format: cell-based; settings: MTS, 72 hours drug, Table 1
Protocol: as §1, §3

[8] = system: EA150 cells; experiment: MTS growth inhibition assay; format: cell-based; settings: for IC50: MTS, 72 hours drug, Table 1
Protocol: as §1, §3

[9] = system: EA40 cells; experiment: MTS growth inhibition assay; format: cell-based; settings: for IC50: EA40 cells
Protocol: as §1, with “performed. […]” for “performed.”
(§4) As such, epothilone resistant cells would have some degree of cross-resistance to other P-gp substrates that could be reversed by P-gp inhibitors. To investigate this possibility, the cytotoxicity of the P-gp substrates, vincristine, doxorubicine and vinblastine is determined against epothilone A resistant cells using the MTS assay. […] When EA20 and resistant MDA/T0.3 cells are incubated with TAXOL® or epothilone A in the presence of [3′-Desoxy-3′-oxo-MeBmt]^1-[Val]^2-Ciclosporin (PSC-833; a P-gp inhibitor which is disclosed in U.S. Pat. No. 5,525,590), the resistance of MDA/T0.3 cells to TAXOL® is reversed but no effect on the resistance of EA20 to epothilone A is observed.

[10] = system: 298/D4/40 cells; experiment: Support of growth of epothilone A-dependent cells; format: cell-based, human; settings: replacing epothilone A
Protocol: The epothilone resistant cell lines, EpoA320-80C, EpoA320/ND, 298/D4/40, 297/C5/0 and 315/sc5.9 are generated as disclosed above. […] A subclone, 298/D4/40, is adapted to grow in the presence of 40 nM epothilone A administered twice weekly (i.e. at every medium change). […] Furthermore, when 298/D4/40 cells are deprived of epothilone A, they growth arrest in the G2/M phase of the cell cycle and eventually die by apoptosis. […] Thus, this cell line could be employed in a drug screen, in which compounds with a potential microtubule-stabilizing mechanism could be identified by virtue of supporting the growth of epothilone A-deprived 298/D4/40 cells (see below). Nevertheless, upon prolonged incubation in the absence of epothilone A, we are able to isolate a subline that is still partially resistant to epothilone A, but has lost the drug-dependent phenotype of 298/D4/40, likely due to a cornpensating mutation. A subclone of this cell line, 297/C5/0, is used for further analyses.
Potential hits would be those that support the growth of 298/D4/40 cells similar to epothilone A (or paclitaxel) that could be included as a positive control in this assay.

[11] = system: 297/C5/0 cells; format: cell-based, human; settings: for RF (resistance factor: IC50 resistant cell line / IC50 parental KB-31): 297/C5/0 (EpoA selected), 72 hrs, average of three experiments; for resistance profile in words: 297/C5/0 vs parental KB-31
Protocol: (§5) Anti-proliferative assays are performed basically as described (Meyer et al., Int. J. Cancer 43:851 (1989)). Briefly, cells are seeded at 1.5×10^3 cells/well into 96-well microtiter plates and allowed to adhere by incubation overnight. Compounds are added in serial dilutions on day 1. The plates are then incubated for an additional 3 days, after which the cells are fixed with 3.3% v/v glutaraldehyde, washed with water and stained with 0.05% w/v methylene blue according to conventional methods. After washing, the dye is eluted with 3% HCl and the optical density measured at 665 nm with a SpectraMax Plus (Molecular Devices, Sunnyvale, Calif.) according to manufacturers instructions. IC50 values are determined by mathematical curve-fitting using the SoftPro2.6.1 program (Molecular Devices, Sunnyvale, Calif.) using the formula (OD treated−OD start)/(OD control−OD start)×100. […] IC50 determinations with the cell line 298/D4/40 are performed in the presence of 40 nM epothilone A.
(§6) Data in Table 4 are gathered according to the following methods: Cells (1×10^3) are seeded in 96-well plates and allowed to adhere for 24 hrs. Compounds are then added as two-fold serial dilutions and incubation continued for an additional 72 hrs. Cell numbers at the beginning and at the end of the experiment are estimated by methylene blue staining of cellular protein mass according to conventional methods. The net mass increase of vehicle-treated cells is set as 100% growth. The IC50 is determined as the drug concentration that leads to half-maximal growth inhibition compared to the control. The resistance factor (RF) for a particular drug is calculated by dividing the IC50 determined on the resistant cell line by that determined on the parental KB-31 cells. Data are presented as average±standard deviation (SD) of three separate experiments, except na=not applicable (n<3). Colchicine-selected KB-8511 cells overexpressing P-glycoprotein served as a reference for the classical multi-drug-resistant phenotype.

[12] = system: 315/sc5.9 cells; format: cell-based, human; settings: for RF (resistance factor: IC50 resistant cell line / IC50 parental KB-31): 315/sc5.9 (EpoB selected), 72 hrs, average of three experiments
Protocol: as §5, §6

[13] = system: 298/D4/40 cells; format: cell-based, human; settings: for RF (resistance factor: IC50 resistant cell line / IC50 parental KB-31): 298/D4/40 (EpoA selected), 72 hrs, in the presence of 40 nM epothilone A; for resistance profile in words: 298/D4/40 vs parental KB-31
Protocol: as §5, §6

[14] = system: KB-8511 cells; format: cell-based, human; settings: for RF (resistance factor: IC50 resistant cell line / IC50 parental KB-31): KB-8511 (Colch selected), 72 hrs, average of three experiments; for resistance profile in words: KB-8511 vs parental KB-31
Protocol: as §6

[15] = system: MDA/T0.3 cells; experiment: MTS growth inhibition assay; format: cell-based; settings: MDA/T0.3 cells, P-gp substrates; Table 2; read-out: IC50
Protocol: as §1, with “After 24 hours, dilutions of drug (concentration range used is between 1 nM and 1000 nM) are added and cells are allowed to incubate with drug for an additional 72 hours.” left out
as §4
MDA/T0.3 is a clonal subline of MDA-MB-435 cells selected by increasing exposure of MDA-MB-435 cells to TAXOL®. MDA/T0.3 cells express high levels of P-glycoprotein and are resistant to a variety of chemically and functionally unrelated compounds. MDA/T0.3 cells could be sensitized to a variety of cytotoxic agents by treatment with the P-glycoprotein reversing agent PSC-833.

Structure (SMILES) | IC50 [4] | IC50 [6] | IC50 [7] | IC50 [8] | IC50 ([9]; MTS, 72 hours drug, Table 1) | support of growth of epothilone A-dependent cell line [10] | RF (resistance factor: IC50 resistant cell line / IC50 parental KB-31) [11] | resistance profile in words [11] | RF (resistance factor: IC50 resistant cell line / IC50 parental KB-31) [12] | RF (resistance factor: IC50 resistant cell line / IC50 parental KB-31) [13] | resistance profile in words [13] | RF (resistance factor: IC50 resistant cell line / IC50 parental KB-31) [14] | resistance profile in words [14] | also measured
C/C=C/C[C@@H](C)C(=O)[C@H]1C(=O)N[C@@H](C(C)C)C(=O)N(C)CC(=O)N(C)[C@@H](CC(C)C)C(=O)N[C@@H](C(C)C)C(=O)N(C)[C@@H](CC(C)C)C(=O)N[C@@H](C)C(=O)N[C@H](C)C(=O)N(C)[C@@H](CC(C)C)C(=O)N(C)[C@@H](CC(C)C)C(=O)N(C)[C@@H](C(C)C)C(=O)N1C [PSC-833, [3′-Desoxy-3′-oxo-MeBmt]^1-[Val]^2-Ciclosporin] |  |  |  |  |  |  |  |  |  |  |  |  |  | effect on resistance to epothilone A [1]: no effect; effect on resistance to TAXOL [2]: reversed
COc1cc2c(c(OC)c1OC)-c1ccc(OC)c(=O)cc1[C@@H](NC(C)=O)CC2 [colchicine] |  |  |  |  |  |  |  |  |  |  |  |  |  | relative resistance compared to KB-31 cells [3]: ~40 fold
C/C(=C\c1csc(C)n1)[C@@H]1C[C@@H]2O[C@]2(C)CCC[C@H](C)[C@H](O)[C@@H](C)C(=O)C(C)(C)[C@@H](O)CC(=O)O1 [Epothilone B, epothilone B] | 0.003 ± 0.0014 µM | 0.006 ± 0.0029 µM | 0.01 ± 0.0042 µM | 0.015 ± 0.0031 µM | 0.008 ± 0.0035 µM | able to substitute for epothilone A | 7.7 | either partially or fully cross-resistant | 3.1 | 9.2 | either partially or fully cross-resistant | 0.9 | retain full activity | IC50 ([5]; MTS, 72 hours drug, Table 1): 0.002 ± 0.0008 µM; resistance profile in words [8]: very little resistance; resistance ([12]; 315/sc5.9 vs parental KB-31): 3.1 fold
CC(=O)O[C@H]1C(=O)[C@@]2(C)[C@H]([C@H](OC(=O)c3ccccc3)[C@]3(O)C[C@H](OC(=O)[C@H](O)[C@@H](NC(=O)c4ccccc4)c4ccccc4)C(C)=C1C3(C)C)[C@]1(OC(C)=O)CO[C@@H]1C[C@@H]2O [Paclitaxel, paclitaxel] | 0.013 ± 0.0031 µM | 0.022 ± 0.004 µM | 0.027 ± 0.0031 µM | 0.034 ± 0.0026 µM | 0.023 ± 0.004 µM | able to substitute for epothilone A | 98.3 | either partially or fully cross-resistant; also recorded: full cross-resistance | 1.4 | 200.1 | either partially or fully cross-resistant; also recorded: full cross-resistance | 209.6 | resistant | IC50 ([5]; Homo sapiens, MTS, 72 hours drug, Table 1): 0.0075 ± 0.003 µM; IC50 ([5]; Homo sapiens, P-gp substrates, Table 2): 0.0075 ± 0.003 µM; IC50 ([9]; P-gp substrates, Table 2): 0.021 ± 0.003 µM; resistance profile in words ([9]; EA40 vs MDA-MB-435 / EA150): equally resistant; resistance profile in words ([12]; 315/sc5.9 vs parental KB-31): marginal cross-resistance; IC50 [15]: 0.54 ± 0.1 µM
